# Measured values: patent publication US20250228827A1, “METHODS OF TREATING ERYTHROPOIETIC PROTOPORPHYRIA, X-LINKED PROTOPORPHYRIA, OR CONGENITAL ERYTHROPOIETIC PORPHYRIA WITH GLYCINE TRANSPORT INHIBITORS” (Disc Medicine, Inc., priority 2021, published 2025)
# pIC50: −log10 of the molar value.
# Key:
# K562 clone 10-9 cells = assay: PPIX accumulation in K562-EPP cellular model (Clone 10-9), flow cytometry; type: cell-based; settings: for effect on PPIX accumulation by flow cytometry: 96 hours; for pIC50: Homo sapiens, 96 hours at 37° C., flow cytometry, read-out: IC50 of inhibition of PPIX accumulation
# Protocol: CRISPR-Cas9 technology was utilized to generate genetic changes in the Ferrochelatase gene (FECH). Guide RNA sgRNA-1 was designed to target Exon 3 of FECH genetic locus and generate a knockout allele at the FECH genomic locus by introduction of indels that lead to frameshift of the coding sequence and premature stop codon. The K562 cells were cultured in IMDM medium supplemented with 10% fetal bovine serum (FBS), 1% penicillin/streptomycin (PS). CRISPR Cas9 RNP complex with guide RNA (gRNA) was electroporated in K562 cells. The transfection was performed using 4D Nucleofector, SF kit, FF-120 program. The transfected cells were plated at densities of 0.5 cells per well in 96-well plates in complete medium. Cells were allowed to grow until colonies were visible in the well. The K562-EPP subclones were individually expanded and screened for the FECH knockout genotype by PCR of genomic DNA and for the expression of the FECH gene by RT-PCR. K562-Clone 10 is determined to be heterozygous for the FECH knockout allele and has reduced expression level of FECH mRNA than the parental K562 cell line.
# In order to introduce the IVS3-T48C mutation into the wild-type allele of the FECH gene in K562-Clone10, CRISPR Cas9 RNP complex with guide RNA sgRNA-2 and single stranded DNA donor were electroporated into the K562-clonel0 that is already heterozygous for the FECH knockout allele generated from the CRISPR-Cas9 gene editing event described in the previous paragraph. sgRNA-2 was designed to target Intron 3, close to the target site IVS3-T48. Similarly, single-cell clones were isolated from this round of gene editing by limited dilution. TA cloning and Sanger sequencing were used to confirm single-cell clones and genotypes. This procedure generated K562 Clone10-IVS-Clone9 (Clone 10-9), which carries the FECH knockout allele in trans with the IVS3-T48C mutation in the other FECH allele.
# The effect of GlyT1 inhibitors on reducing PPIX accumulation was evaluated in the K562-EPP cellular model, Clone 10-9. 900 μL of K562 clone 10-9 cells at 2×10^5 cells/mL in IMDM media with 10% FBS and 1% PS were plated into a 24-well plate. After 24-hour incubation, 100 μL of compound in DMSO/media was added in different concentration. The final concentration of DMSO was 0.1%. The compound was incubated for 96 hours at 37° C. Cell viability and cell count were measured by Vi-CELL XR Complete System. Finally, the effect of the compound on PPIX level was determined by flow cytometry.
# [1] = system: FECH knockdown CD34+ cells; assay: PPIX accumulation in FECH knockdown CD34+ cells (CD34+-EPP cells), LC-MS/MS; type: cell-based, human; settings: for effect on PPIX accumulation / pIC50: FECH knockdown CD34+ cells; for pIC50: Homo sapiens, treated 9 days (day 8 to day 16), LC-MS/MS, read-out: IC50 on PPIX levels
# Source text: To investigate the effects of GlyT1 inhibitors in human hematopoietic stem cells with an EPP phenotype, lentiviral vectors expressing shRNA of FECH were constructed (Table 2) and transduced at 25 MOI into human cord blood-CD34+ cells purchased from Stemexpress.
# Specifically, the purchased CD34+ cells were defrosted and expanded for eight days in serum-free Hematopoietic Progenitor Expansion Medium XF (C-28021) supplemented with Cytokine Mix E (human TPO, SCF, FLT-3 ligand and IL-3, #C-39891). During the expansion phase, CD34 expression was monitored, cells were frozen in a serum-free DMSO-based freezing medium (CryoStor® CS2).
# For FECH knock-down experiments, cells expanded from a single vial were used to avoid donor heterogeneity. Freshly defrosted cells were expanded for three days (day 0-day 3) and infected with lentivirus expressing shControl or shFECH at an MOI of 25 in the presence of polybrene. After transduction, shRNA expressing cells were selected in the presence of puromycin (1 ug/ml) for four days (day 4-day 7). FECH expression levels were determined in the shFECH transfected CD34+ cells at Day 8. FECH mRNA level was reduced by ˜80% (0.196±0.307) in the shFECH transfected CD34+ cells (FIG. 5A). FECH protein level was reduced by ˜62% in the shFECH transfected CD34+ cells (FIG. 5B and FIG. 5C).
# In order to evaluate the effect of GlyT1 inhibitor on PPIX accumulation in CD34^+-EPP cells, the cells were treated with serial dilutions of the compounds or DMSO control in the erythroid differentiation medium for 9 days (day 8 to day 16). The differentiated erythroid cells were harvested at day 16 and assayed for the intracellular PPIX levels by LC-MS/MS.
Compound,effect on PPIX accumulation by flow cytometry (K562 clone 10-9 cells),pIC50 (K562 clone 10-9 cells),"PPIX pmol/million cells ([1]; 0.46 nM, sample 1)","PPIX pmol/million cells ([1]; 0.46 nM, sample 2)","PPIX pmol/million cells ([1]; 1.37 nM, sample 1)","PPIX pmol/million cells ([1]; 1.37 nM, sample 2)","PPIX pmol/million cells ([1]; 4.12 nM, sample 1)","PPIX pmol/million cells ([1]; 4.12 nM, sample 2)","PPIX pmol/million cells ([1]; 12.35 nM, sample 1)","PPIX pmol/million cells ([1]; 12.35 nM, sample 2)","PPIX pmol/million cells ([1]; 37.04 nM, sample 1)","PPIX pmol/million cells ([1]; 37.04 nM, sample 2)","PPIX pmol/million cells ([1]; 111.11 nM, sample 1)","PPIX pmol/million cells ([1]; 111.11 nM, sample 2)","PPIX pmol/million cells ([1]; 333.33 nM, sample 1)","PPIX pmol/million cells ([1]; 333.33 nM, sample 2)","PPIX pmol/million cells ([1]; 1000.00 nM, sample 1)","PPIX pmol/million cells ([1]; 1000.00 nM, sample 2)",effect on PPIX accumulation [1],pIC50 [1]
C[C@@H](Oc1ccc(S(C)(=O)=O)cc1C(=O)N1C[C@@H]2C[C@]2(c2cc(C(F)(F)F)on2)C1)C(F)(F)F [Compound A],dose-dependent inhibition of PPIX accumulation,7.36,19.2 pmol/million cells,18.2 pmol/million cells,11.8 pmol/million cells,16.7 pmol/million cells,18.5 pmol/million cells,13.3 pmol/million cells,30.1 pmol/million cells,20.3 pmol/million cells,18.5 pmol/million cells,19.4 pmol/million cells,7 pmol/million cells,7.25 pmol/million cells,5.97 pmol/million cells,4.69 pmol/million cells,3.94 pmol/million cells,6.95 pmol/million cells,decreased,7.01
C[C@H](Oc1ccc(S(C)(=O)=O)cc1C(=O)N1Cc2cc(C(F)(F)F)cnc2C1)C(F)(F)F [Compound X],dose-dependent inhibition of PPIX accumulation,7.11,25 pmol/million cells,27.1 pmol/million cells,27.3 pmol/million cells,46.5 pmol/million cells,34.4 pmol/million cells,24.7 pmol/million cells,34.6 pmol/million cells,34.6 pmol/million cells,14.7 pmol/million cells,17.5 pmol/million cells,13.6 pmol/million cells,13.5 pmol/million cells,14.1 pmol/million cells,15.2 pmol/million cells,11 pmol/million cells,12.8 pmol/million cells,decreased PPIX accumulation,7.48
